Results taken from US20160082133A1, “CHEMICAL EXCHANGE SATURATION TRANSFER (CEST) BASED MRI USING REPORTER GENES AND SUBSTRATES AND METHODS THEREOF” (The Johns Hopkins University, priority 2013, published 2016).
Values joined by “and” are separate entries in the source; they are usually repeats but may differ in a detail not shown here. Equal entries are not always repeated.

Columns and labels:
[1] = In vitro CEST-MRI of thymidine analogues at 11.7 T; type: physicochemical; conditions: pH 7.4, 37° C.; for MTRasym (8.5 Hz) / MTRasym (170 Hz) / MTRasym (213 Hz): at 5 ppm for 20 nM agent (so in the source); for MTRasym (128 Hz): at 5 ppm for 20 mM agent
Method: All compounds were dissolved at a concentration of 20 mM in phosphate-buffered saline (PBS) (pH=7.4) and placed in microcapillaries, as described previously.^17 CESTMRI experiments were performed on a vertical 11.7 T scanner (Bruker Avance system) at 37° C. A modified RARE sequence (TR/TE=10 000/9.4 ms; RARE factor=16; 1 mm slice thickness; FOV=11×11 mm^2; matrix size=64×32; resolution=0.17×0.34 mm^2; and NA=2) including a magnetization transfer (MT) module ([…]) was used to acquire CEST-weighted images from −8 to +8 ppm with increments of 0.2 ppm around the water resonance, which was assigned to be at 0 ppm. Pixel-based B0 correction was used as described before using the same parameters as above except for TR=1500 ms and B1/tsat=21 Hz/500 ms, with a sweep range from −2 to +2 ppm (0.1 ppm steps). Data processing was performed using custom-written scripts in MATLAB (Mathworks). Mean CEST spectra were plotted from an ROI for each sample, after B0 correction. MTRasym=100×(S^−Aω−S^AωA/^‘−’0)/3 was computed at different offsets Aω.

[2] = Quantification of exchange rates (QUESP, Bloch equation fitting); type: physicochemical; conditions: 11.7 T, pH 7.4, 37° C.; for kex, quantified exchange rates of imino and water protons: 5 ppm for 1-3, 6 ppm for dT
Method: Exchange rates were quantified with the saturation power dependent CEST approach (QUESP) and Bloch equation fitting (McMahon et al., Magn. Res. Med. 2006, 55, 836). For each sample, the MTRasym was measured at the imino resonance frequency for CEST saturation fields of 43, 85, 128, 170, 213, 255, 340, and 426 Hz while the saturation pulse duration was kept constant at 4000 ms. The Bloch equations were then fit numerically to these MTRasym values using MATLAB (Mathworks), and the exchange rates (kex, s^−1) were determined from the fits. Errors (95% confidence limits) were estimated using the F statistic.

[3] = CEST MRI of CDase substrates and products at 9.4 T; type: physicochemical; conditions: pH 7.4, 37° C.
Source text: All MR images were acquired with a 9.4T Bruker Avance system equipped with a 15 mm sawtooth RF coil. A modified RARE sequence (TR=6.0 sec, effective TE=43.2 ms, RARE factor=16, slice thickness=0.7 mm, FOV=14×14 mm, matrix size=128×64, resolution=0.11×0.22 mm^2, and NA=2) including a magnetization transfer (MT) module (one CW pulse, B=[…] (150 Hz), 3 sec) was used to acquire CEST-weighted images from −6 ppm to 6 ppm (step=0.2 ppm) around the water resonance (0 ppm). The absolute water resonant frequency shift was measured using a Water Saturation Shift Reference (WASSR) (Kim, M. et al. Magnetic Resonance in Medicine 2009, 61, 1441) method modified (Liu, G. et al. Contrast Media Mol Imaging 2010, 5, 162) with Lorentzian analysis. […]
Data processing was performed using custom-written scripts in MATLAB (Mathworks, Waltham, Mass.). CEST spectra were calculated from the mean of an ROI placed over each sample after B0 correction of the contrast on a per voxel basis. The CEST signal was quantified using MTRasym at specific offsets of interest (i.e., &ω=+2 ppm for cytosine or +2.4 ppm for 5FC) using the definition: MTRasym=(S^−˜ω−S^+″ω)/S0, where and s[−˜ω, +Aω] is the water signal intensity in the presence of a saturation pulse at offsets ±Aω, and S0 is water signal intensity in the absence of a saturation pulse.

HEK293 = assay: CEST MRI of HEK293 cells expressing hPRM1 (lysate and encapsulated live cells); type: cell-based, Human
Method: CEST experiments were performed on an 11.7T Bruker Avance system, as previously described. A modified RARE (TR/TE=6000/9.4 ms), including a magnetization transfer module (B1=4.7 μT/4000 ms), was used to acquire CEST-weighted images. The absolute water resonant frequency shift was measured using a modified WASSR method, with the same parameters as in CEST imaging, except for TR=1.5 sec and a saturation pulse of B1=0.5 μT/250 ms, which was used for B0 correction for each voxel using MatLab. MTR asymmetry (MTRasym)=100×(S−Δω−S+Δω)/S0 was computed at different offsets, Δω. Human Embryonic Kidney cells (HEK293), were engineered to express the gene encoding to hPRM1 (NM_002761; 293^hPRM1). Non-expressing wild type cells (293^wt) were used as controls. The cells were lysed or encapsulated in alginate-based microcapsules using Ba^2+ ions as the gelating cation (Barnett, B. P., et al. Nat Protoc 6, 1142-1151 (2011)).

293^HSV1-tk cells = assay: Cell viability assay (CellTiter-Blue); type: cell-based, human; conditions: 0.5 mg/ml
Method: Cell viability assay was performed using CellTiter-Blue® Cell Viability Assay (Promega), which provides a fluorometric method for estimating the number of viable cells present in 96 well plate. HEK293FT cells transduced with the HSV1-tk (293^HSV1-tk) were plated in 96 well-plate (10,000 cells/well). Cells were incubated for a periods of 4 hours and 24 hours in the presence of ganciclovir (GCV, 0.5 mg/ml in cell medium), compound 2 (0.5 mg/ml in cell medium) and medium (as control). CellTiter-Blue® Reagent was added (20 μl/well) and plate was incubated for 3 hours at 37° C. Finally, fluorescence 560/590 nm was recorded and values obtained from probe containing wells (GCV or 2, N=4) were normalized to values of non-treated cells (control wells) to determine the % of viable cells after the incubation period.

[4] = CEST-MRI of LRRASLG and LRRApSLG peptides in PBS; type: physicochemical; conditions: 1 mM, PBS pH 7.4, 11.7T
Method: Peptides were synthesized by NeoBioSci (Cambridge, Mass.) and provided as lyophilized powder. All compounds were dissolved in 10 mM PBS (pH 1/4 7.4) at the indicated concentration.
(§1) CEST MRI experiments were performed on a vertical 11.7T Bruker Avance system. Approximately […] of each sample was loaded into a capillary tube and up to 20 samples were scanned at each session to minimize variability as described before (Liu G et al., High-throughput screening of chemical exchange saturation transfer MR contrast agents. Contrast Media Mol Imaging 2010; 5:162-17). […] To account for inhomogeneity of the B0 field, the absolute water resonant frequency shift was measured using a modified water saturation shift reference method (Kim M et al., Water saturation shift referencing (WASSR) for chemical exchange saturation transfer (CEST) experiments. Magn Reson Med 2009; 61:1441-1450), using the same parameters as in CEST imaging except pulse repetition time 1/4 1.5 s, saturation pulse 1/4 500 ms, B1 1/4 […], and a sweep range from −2 to +2 ppm (step 1/4 0.1 ppm). […] After B0 correction for each voxel using the water saturation shift reference data, mean CEST-spectra were calculated from a region of interest (ROI) for each sample. […]

PKA = target: T1, PKA (Mus musculus, UniProt P05132); assay: Phosphorylation assay with recombinant PKA read out by CEST MRI; type: biochemical; conditions: 1 mM peptide
T1 construct: purchased New England Biolabs
Method: as §1, with “sample. The MTR asymmetry was quantified as MTRasym 1/4 (S^−Δω−S^+Δω)/S^0 (S^−Δω and S^+Δω are the water peak differentials due to saturation at the target frequency +ω and its negative −ω, respectively. S^0 is the unsaturated signal).” for “sample.”

Compound: CC1(O)C(=O)NC(=O)N([C@H]2C[C@H](O)[C@@H](CO)O2)C1O (stereo partly shown) [Compound 3, thymidine glycol]
- MTRasym (8.5 Hz) [1]: 3%
- MTRasym (170 Hz) [1]: 11%
- MTRasym (213 Hz) [1]: 16%
- MTRasym (128 Hz) [1]: 7%
- kex of the imino proton [2]: 3.7±0.2×10^3 s^−1 and 5.1±0.7×10^3 s^−1
- kex, quantified exchange rates of imino and water protons [2]: 3.8 ± 0.2 ×10^3 s^−1

Compound: O=c1cc[nH]c(=O)[nH]1 [uracil]
- MTRasym (CEST contrast) [3]: only limited and non-frequency-specific MTRasym

Compound: O=c1[nH]cc(F)c(=O)[nH]1 [5FU, 5-fluorouracil]
- MTRasym (CEST contrast) [3]: only limited and non-frequency-specific MTRasym

Compound: O=c1[nH]c(=O)n([C@H]2C[C@H](O)[C@@H](CO)O2)cc1Cl [Compound 4, 5-chloro-2′-deoxyuridine]
- CEST contrast from the imino proton [1]: No CEST contrast was observed

Compound: hPRM1: arginine-rich protein human protamine-1 (NM_002761) expressed as CEST reporter (ARYRCCRSQSRSRYYRQRQRSRRRRRRSCQTRRRAMRCCRPRYRPRCRRH; UniProt P04553 2-51, looked up)
- CEST contrast of encapsulated live cells compared to non-expressing wild type cells (HEK293; alginate microcapsules, 1.3 ppm and 3.6 ppm offsets): higher
- CEST contrast of 293^hPRM1 lysate compared to wild type lysate (HEK293; cell lysate): significantly higher CEST contrast

Compound: Nc1nc(O)c2ncn(COC(CO)CO)c2n1 [GCV, ganciclovir, reference compound]
- toxic effect on 293^HSV1-tk cells (293^HSV1-tk cells; 4 and 24 hours): cytotoxic effect
- cells killed (293^HSV1-tk cells; 24 hour, 293^HSV1-tk): about 50%

Compound: Cc1cn([C@H]2C[C@H](O)[C@@H](CO)O2)c(=O)[nH]c1=O [dT, Thymidine, reference compound]
- MTRasym (8.5 Hz) [1]: 2%
- MTRasym (170 Hz) [1]: 10%
- MTRasym (213 Hz) [1]: 15%
- MTRasym (128 Hz) [1]: 5%
- kex of the imino proton [2]: 3.7±0.2×10^3 s^−1
- kex, quantified exchange rates of imino and water protons [2]: 5.1 ± 0.7 ×10^3 s^−1

Compound: LRRASLG
- CEST contrast of unphosphorylated versus phosphorylated peptide [4]: significantly higher contrast
- decrease in CEST contrast on incubation with recombinant PKA (PKA; 4 mM ATP, 30° C.): > 50%
- time in which the majority of the signal difference is generated (PKA; recombinant PKA): ≤ 15 min
